# From publication PMC10056008 (Pharmaceuticals, 2023)
# Read-outs that look alike come from different tables or passages of the source.
# How the values were obtained:
# [1] = Pharmacokinetics of dabigatran etexilate, dabigatran and dabigatran acylglucuronide in plasma after 150 mg dabigatran etexilate with or without simvastatin; type: in vivo, human; conditions: for AUClast with simvastatin as % of value when administered alone / Cmax with simvastatin as % of value when administered alone: co-administered with simvastatin vs alone; for increase of AUClast after simvastatin co-administration: compared to dabigatran administered alone
# Method: An open-label, two-period, single sequence clinical study was conducted. After an overnight fast and drinking 200 mL of water one hour before drug administration, eligible subjects were administered with a capsule of dabigatran etexilate 150 mg ([…]®) on the first day of the study. Blood samples for pharmacokinetic and pharmacodynamic analyses were obtained using EDTA tubes and citrate tubes, respectively. […] Subjects remained at fasting stage until 4 h after the administration. […] To ensure compliance, subjects visited the study site for every drug administration. […] Blood samples were obtained at the same time point scheduled as the first day of the study. Adverse events were collected during the entire study period. This study was conducted in accordance with the Declaration of Helsinki, good clinical practice, and local regulation. The study was approved by the Institutional Review Board at Korea University Guro Hospital (2018GR0336, date of approval: 11 October 2018) and registered at ClinicalTrials.gov (NCT03728101). Separate plasma samples were kept frozen below -70 °C until analysis. Plasma concentrations of dabigatran etexilate, dabigatran, and dabigatran acylglucuronide were quantified using a high-performance liquid chromatography (Nanospace series SI-2, Shiseido Co., Ltd., Tokyo, Japan) coupled with tandem mass spectrometry (API4000, AB SCIEX LLC, Framingham, MA, USA) method. The method was validated in terms of selectivity, linearity, precision, accuracy, recovery, matrix effect, and stability prior to the analysis. In brief, 100 μL of plasma samples were deproteinized using 400 μL of acetonitrile and centrifuged at 13,000× g for 20 min. Dabigatran-d3 was used as an internal standard. The supernatants were evaporated and then dissolved in a 300 μL mobile phase consisting of acetonitrile and 10 mM ammonium formate (215:85, v/v). These samples were injected onto an Atlantis HILIC SilicaTM column (2.1 mm × 150 mm, 3 μm, Waters, Milford, MA, USA) at a flow rate of 0.3 mL/min. The mass spectrometer equipped with an electrospray ionization source was operated in a positive ion mode. Selected ion pairs of m/z 629.464→290.100 for dabigatran etexilate, m/z 472.300→289.100 for dabigatran, m/z 648.382→289.100 for dabigatran acylglucuronide were detected. […] Pharmacokinetic parameters of dabigatran etexilate, dabigatran, and dabigatran acylglucuronide were derived from noncompartmental analysis using Phoenix Winnonlin® version 8.3 (Certara, Princeton, NJ, USA). Observed values from individual time-concentration profiles were used for Cmax and Tmax. Area under the time-concentration curve (AUC) was calculated using linear-up log-down trapezoidal rule. The AUC from 0 h to infinity (AUCinf) was calculated as follows: AUCinf = AUC + Ct/ke, where Ct was the last plasma concentration and ke was the elimination rate constant. […] Mean residence time (MRT) was calculated as area under the moment curve from time of dosing to the last measurable concentration divided by AUClast. All statistical analyses were performed using SAS® version 9.4 (SAS Institute Inc., Cary, NC, USA). Descriptive statistics were used to summarize demographic, pharmacokinetic, and pharmacodynamic data. A linear mixed effects model was used to compare Cmax, AUClast, and AUCinf between two treatment periods.
# [2] = Adverse events, vital signs, clinical laboratory tests, electrocardiogram; type: in vivo, human; conditions: 12 healthy subjects; except one subject with mild pharyngitis, which resolved
# Method: An open-label, two-period, single sequence clinical study was conducted. After an overnight fast and drinking 200 mL of water one hour before drug administration, eligible subjects were administered with a capsule of dabigatran etexilate 150 mg ([…]®) on the first day of the study. Blood samples for pharmacokinetic and pharmacodynamic analyses were obtained using EDTA tubes and citrate tubes, respectively. […] Subjects remained at fasting stage until 4 h after the administration. […] To ensure compliance, subjects visited the study site for every drug administration. […] Blood samples were obtained at the same time point scheduled as the first day of the study. Adverse events were collected during the entire study period. This study was conducted in accordance with the Declaration of Helsinki, good clinical practice, and local regulation.
# [3] = cited from earlier work
# coagulation = assay: Coagulation assay (aPTT, PT, dPT, TT, fibrinogen) in plasma of dosed subjects; type: in vivo, human; conditions: for Fibrinogen AUEC / Fibrinogen Rmax / PT (INR) AUEC / PT (INR) Rmax / PT (sec) AUEC / PT (sec) Rmax / TT AUEC / TT Rmax / aPTT AUEC / aPTT Rmax / dPT (1:256) AUEC / dPT (1:256) Rmax: mean (SD)
# Method: An open-label, two-period, single sequence clinical study was conducted. After an overnight fast and drinking 200 mL of water one hour before drug administration, eligible subjects were administered with a capsule of dabigatran etexilate 150 mg ([…]®) on the first day of the study. Blood samples for pharmacokinetic and pharmacodynamic analyses were obtained using EDTA tubes and citrate tubes, respectively. […] Subjects remained at fasting stage until 4 h after the administration. […] To ensure compliance, subjects visited the study site for every drug administration. […] Blood samples were obtained at the same time point scheduled as the first day of the study. Adverse events were collected during the entire study period. This study was conducted in accordance with the Declaration of Helsinki, good clinical practice, and local regulation. The study was approved by the Institutional Review Board at Korea University Guro Hospital (2018GR0336, date of approval: 11 October 2018) and registered at ClinicalTrials.gov (NCT03728101). Anticoagulant assays of aPTT, PT, dPT, TT, and fibrinogen were measured using STA® Compact Max (Stago, Asnieres, France) according to the manufacturer's instructions. […] To measure aPTT, 50 μL of plasma sample was placed in a cuvette in the presence of STA®-PTT (50 μL) and 50 μL of 0.025 M CaCl2. For fibrinogen, 7.5 μL of plasma which was automatically diluted with Owren-Koller buffer was placed into a cuvette and then 50 μL of […] was added. For pharmacodynamic assessment, Phoenix Winnonlin® version 8.3 (Pharsight, Mountain View, CA, USA) was used to calculate AUEC with the linear trapezoidal method and Rmax was directly determined from individual profiles.
# thrombin generation = assay: Thrombin generation assay (TGA) in plasma of dosed subjects; type: in vivo, human; conditions: mean (SD)
# Method: An open-label, two-period, single sequence clinical study was conducted. After an overnight fast and drinking 200 mL of water one hour before drug administration, eligible subjects were administered with a capsule of dabigatran etexilate 150 mg ([…]®) on the first day of the study. Blood samples for pharmacokinetic and pharmacodynamic analyses were obtained using EDTA tubes and citrate tubes, respectively. […] Subjects remained at fasting stage until 4 h after the administration. […] To ensure compliance, subjects visited the study site for every drug administration. […] Blood samples were obtained at the same time point scheduled as the first day of the study. Adverse events were collected during the entire study period. This study was conducted in accordance with the Declaration of Helsinki, good clinical practice, and local regulation. […] TGA was performed using a Technothrombin® TGA kit (Technoclone, Vienna, Austria) on a fully automated, computer-controlled microplate reader (Flexstation 3; Molecular Devices, San Jose, CA, USA) with a 360 nm excitation wavelength and 460 nm emission wavelength. In brief, 30 μL of plasma samples were mixed with 25 μL of 400 μmol/L fluorogenic substrate ([…]; Bachem, Bubendorf, Switzerland). The assay was initiated by dispensing 10 μL of 5 pmol/L recombinant human tissue factor lipidated with synthetic phospholipids and 10 μL of 15 mmol/L CaCl2. TGA results are expressed as Cmax, AUC, Tmax, and lag time. For pharmacodynamic assessment, Phoenix Winnonlin® version 8.3 (Pharsight, Mountain View, CA, USA) was used to calculate AUEC with the linear trapezoidal method and Rmax was directly determined from individual profiles.
# [4] = 150 mg dabigatran etexilate alone, mean (SD)
# [5] = co-administered with simvastatin 40 mg once daily, day 7, mean (SD)
# [6] = human, oral, 150 mg dabigatran etexilate alone, plasma, mean (SD)
# [7] = human, plasma, oral, 150 mg dabigatran etexilate alone, mean (SD)
# [8] = human, plasma, oral, 150 mg dabigatran etexilate alone, mean (SD), read-out: Cmax
# [9] = human, plasma, oral, 150 mg dabigatran etexilate alone, mean (SD), read-out: MRT
compound,measurement,setting,value
CCCCCCOC(=O)NC(=N)c1ccc(NCc2nc3cc(C(=O)N(CCC(=O)OCC)c4ccccn4)ccc3n2C)cc1 [Dabigatran etexilate],CL/F,[1]; [4],"12,208.4 (16,447.7) L/h"
same,CL/F,[1]; [5],5235.1 (2729.4) L/h
same,AUClast with simvastatin as % of value when administered alone,[1],147%
same,Cmax with simvastatin as % of value when administered alone,[1],138%
same,increase of AUClast after simvastatin co-administration,[1],47%
same,AUC(0-inf),[1]; [6],33.7 ng·h/mL
same,AUC(0-t),[1]; [6],26.1 ng·h/mL
same,half-life,[1]; [7],3.4 h
same,Cmax,[1]; [8],24.5 ng/mL
same,MRT,[1]; [9],1.9 h
same,Tmax,"[1]; human, plasma, oral, 150 mg dabigatran etexilate alone, median (min–max), read-out: Tmax",1 h
same,"adverse events, vital signs, clinical laboratory tests, electrocardiogram",[2],no adverse events or clinically significant changes
same,absolute bioavailability,[3],7%
same,increase in exposure in mild renal impairment patients vs healthy subjects,[3]; single dose,1.5 times
same,"time of highest mean value of aPTT, PT, dPT and TT",coagulation; after administration of dabigatran etexilate,2 to 4 h
CCC(C)(C)C(=O)O[C@H]1C[C@@H](C)C=C2C=C[C@H](C)[C@H](CC[C@@H](O)C[C@@H](O)CC(=O)O)[C@H]21 [simvastatin acid],Time to reach Cmax (Tmax),"[3]; human, in vivo",~4.2 h
same,elimination half-life,"[3]; human, in vivo",~4.4 h
[H]/N=C(/N)c1ccc(NCc2nc3cc(C(=O)N(CCC(=O)O)c4ccccn4)ccc3n2C)cc1 [Dabigatran],Thrombin Generation AUC AUEC,thrombin generation; dabigatran alone,"84,994.8 (14,977.1) nM∙min∙h"
same,Thrombin Generation AUC Rmax,thrombin generation; dabigatran alone,2423.6 (734.9) nM∙min
same,Thrombin Generation Lag time AUEC,thrombin generation; dabigatran alone,131.7 (20.8) min∙h
same,Thrombin Generation Lag time Rmax,thrombin generation; dabigatran alone,7.8 (1.7) min
same,Thrombin Generation AUC AUEC,thrombin generation; dabigatran with simvastatin,"79,286.4 (10,676.3) nM∙min∙h"
same,Thrombin Generation AUC Rmax,thrombin generation; dabigatran with simvastatin,2231.7 (326.0) nM∙min
same,Thrombin Generation Lag time AUEC,thrombin generation; dabigatran with simvastatin,128.5 (20.1) min∙h
same,Thrombin Generation Lag time Rmax,thrombin generation; dabigatran with simvastatin,8.0 (1.5) min
same,CL/F,[1]; [4],362.3 (331.8) L/h
same,Tmax,"[1]; 150 mg dabigatran etexilate alone, median (min–max)",2 (1–4) h
same,CL/F,[1]; [5],275.8 (197.4) L/h
same,AUClast with simvastatin as % of value when administered alone,[1],121%
same,Cmax with simvastatin as % of value when administered alone,[1],124%
same,increase of AUClast after simvastatin co-administration,[1],21%
same,AUC(0-inf),[1]; [6],664 ng·h/mL
same,AUC(0-t),[1]; [6],617 ng·h/mL
same,half-life,[1]; [7],6.1 h
same,Cmax,[1]; [8],87 ng/mL
same,MRT,[1]; [9],7.1 h
same,influence of atorvastatin on pharmacokinetics or pharmacodynamics of dabigatran,[3]; healthy volunteers,No influence
same,fraction excreted via urine,[3]; intravenous dabigatran,85%
same,Fibrinogen AUEC,coagulation; dabigatran alone,6249.8 (1133.1) h∙mg/dL
same,Fibrinogen Rmax,coagulation; dabigatran alone,288.0 (55.9) mg/dL
same,PT (INR) AUEC,coagulation; dabigatran alone,26.9 (1.4)
same,PT (INR) Rmax,coagulation; dabigatran alone,1.3 (0.1)
same,PT (sec) AUEC,coagulation; dabigatran alone,344.9 (14.3) s∙h
same,PT (sec) Rmax,coagulation; dabigatran alone,16.6 (1.4) s
same,TT AUEC,coagulation; dabigatran alone,1690.1 (535.9) s∙h
same,TT Rmax,coagulation; dabigatran alone,169.2 (74.0) s
same,aPTT AUEC,coagulation; dabigatran alone,1203.1 (153.1) s∙h
same,aPTT Rmax,coagulation; dabigatran alone,69.5 (13.8) s
same,dPT (1:256) AUEC,coagulation; dabigatran alone,1404.8 (184.7) s∙h
same,dPT (1:256) Rmax,coagulation; dabigatran alone,87.5 (19.2) s
same,Fibrinogen AUEC,coagulation; dabigatran with simvastatin,6040.9 (758.3) h∙mg/dL
same,Fibrinogen Rmax,coagulation; dabigatran with simvastatin,309.3 (96.0) mg/dL
same,PT (INR) AUEC,coagulation; dabigatran with simvastatin,27.7 (1.2)
same,PT (INR) Rmax,coagulation; dabigatran with simvastatin,1.4 (0.1)
same,PT (sec) AUEC,coagulation; dabigatran with simvastatin,353.8 (12.3) s∙h
same,PT (sec) Rmax,coagulation; dabigatran with simvastatin,17.2 (1.4) s
same,TT AUEC,coagulation; dabigatran with simvastatin,1976.2 (643.8) s∙h
same,TT Rmax,coagulation; dabigatran with simvastatin,180.7 (50.4) s
same,aPTT AUEC,coagulation; dabigatran with simvastatin,1235.7 (131.7) s∙h
same,aPTT Rmax,coagulation; dabigatran with simvastatin,71.7 (12.2) s
same,dPT (1:256) AUEC,coagulation; dabigatran with simvastatin,1482.9 (144.9) s∙h
same,dPT (1:256) Rmax,coagulation; dabigatran with simvastatin,92.5 (15.3) s
Cn1c(CNc2ccc(C(=N)N)cc2)nc2cc(C(=O)N(CCC(=O)OC3O[C@H](C(=O)O)[C@@H](O)[C@H](O)[C@H]3O)c3ccccn3)ccc21 (stereo partly drawn) [Dabigatran acylglucuronide],AUCinf,"[1]; human, in vivo, 150 mg",1576.5 (1154.0) h∙ng/mL
same,AUClast,"[1]; human, in vivo, 150 mg",1480.1 (1090.5) h∙ng/mL
same,CL/F,"[1]; human, in vivo, 150 mg",176.8 (161.8) L/h
same,Cmax,"[1]; human, in vivo, 150 mg",266.8 (187.1) ng/mL
same,MRT,"[1]; human, in vivo, 150 mg",6.8 (0.9) h
same,Tmax,"[1]; human, in vivo, 150 mg",2 (1.5–4) h
same,t1/2,"[1]; human, in vivo, 150 mg",6.4 (1.9) h
